Data taken from BigSolDB 2.1.

CCCCCCCCCCCCCCCc1cccc(O)c1
Settings | solubility (mole fraction)
in acetone, 289.08 K | 0.253
in acetone, 291.32 K | 0.272
in acetone, 293.55 K | 0.309
in acetone, 295.54 K | 0.33
in acetone, 297.54 K | 0.351
in acetone, 299.33 K | 0.373
in ethanol, 291.47 K | 0.158
in ethanol, 293.83 K | 0.181
in ethanol, 295.56 K | 0.199
in ethanol, 297.55 K | 0.228
in ethanol, 299.15 K | 0.252
in ethanol, 301.28 K | 0.278
in ethyl acetate, 290.83 K | 0.236
in ethyl acetate, 295.86 K | 0.299
in ethyl acetate, 297.3 K | 0.323
in ethyl acetate, 300.12 K | 0.352
in ethyl acetate, 302.14 K | 0.38
in n-butanol, 293.55 K | 0.239
in n-butanol, 295.36 K | 0.263
in n-butanol, 297.33 K | 0.282
in n-butanol, 299.16 K | 0.302
in n-butanol, 300.86 K | 0.321
in n-butanol, 302.94 K | 0.349
in tetrachloromethane, 288.46 K | 0.0912
in tetrachloromethane, 290.45 K | 0.101
in tetrachloromethane, 292.51 K | 0.124
in tetrachloromethane, 294.42 K | 0.15
in tetrachloromethane, 296.55 K | 0.18
in tetrachloromethane, 298.36 K | 0.21
in tetrachloromethane, 300.24 K | 0.242
in toluene, 295.25 K | 0.122
in toluene, 297.45 K | 0.14
in toluene, 299.2 K | 0.16
in toluene, 301.23 K | 0.186
in toluene, 303.66 K | 0.228
in toluene, 305.47 K | 0.262
